Patent US10730885B1, “Coumarin derivatives” (KING SAUD UNIVERSITY, priority 2019, dated 2020)
In brackets after ≈: the same amount, converted by molar mass.

Columns and labels:
[1] = test system: Bacillus megaterium ATCC 9885; test: Agar well diffusion, primary antimicrobial screening; format: cell-based; settings: Priestia megaterium, ATCC9885; B. megaterium ATCC 9885; 100 μL of 10 mg/ml in DMSO, 24 h; read-out: Inhibition Diameter Zone BM
Outline: (§1)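 Seeded agar (bacteria 1×10^8 CFU/mL on nutrient agar; yeasts 1×10^6 CFU/ml on Sabouraud dextrose agar), 10 mm wells loaded with compound at 10 mg/ml in DMSO. Incubated 24 h at 37° C. Inhibition zone diameter (mm), mean of triplicate; DMSO negative control.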

[2] = test system: Escherichia coli ATCC 2592; test: as above; format: cell-based; settings: Escherichia coli, ATCC2592; E. coli ATCC 2592; 100 μL of 10 mg/ml in DMSO, 24 h; read-out: Inhibition Diameter Zone EC
Outline: as §1

trypsin = test: Proteinase inhibitory activity (trypsin/casein); format: biochemical; settings: for % Inhibition of proteinase activity: 250 μg/ml, mean ± SD (n = 3)
Outline: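 Trypsin (0.06 mg) in 20 mM Tris-HCl pH 7.4 was preincubated 5 min with test sample (250 μg/ml solution), then 0.8% casein was added for 20 min. The reaction was stopped with perchloric acid, and supernatant absorbance was read at 280 nm after centrifugation. Percent inhibition relative to the uninhibited control was determined in triplicate.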

tested microorganisms = test: MIC by two fold serial dilution, summary over the tested microorganisms; format: cell-based
Text: (§2) The newly synthesized compounds were individually tested for their in vitro antimicrobial activity against the standard bacteria strains of American Type Culture Collection (ATCC), namely, Staphylococcus aureus ATCC 29213, Bacillus subtilis ATCC 6633, Bacillus megaterium ATCC 9885 (Gram-positive), Escherichia coli ATCC 2592 and Pseudomonas aeruginosa ATCC 27953 (Gram-negative). In addition, they were microbiologically tested against the locally isolated Saccharomyces cerevisiae (yeast) and the standard strain of Agricultural Research Service Culture Collection (NRRL) of the yeast like pathogenic fungus Candida albicans NRRL Y-477. The primary screening was carried out using the agar well diffusion method using nutrient agar (NA) medium and Sabourand dextrose agar (SDA) medium for pathological tested bacteria and yeast, respectively.
(§3) The bacteriostatic activity of the active compounds (having IZ>16 mm) was then evaluated using the two fold serial dilution technique. Two-fold serial dilutions of the tested compound solutions were prepared using the proper nutrient broth. The final concentration of the solutions were 1000, 500, 250 and 125 μg/ml. The tubes were then inoculated with the test organisms, grown in their suitable broth at 37° C. for 24 hours for tested microorganisms. (1×10^8 CFU/ml for bacteria and 1×10^6 CFU/ml of yeast), each 5 ml received 0.1 ml of the above inoculum and incubated at 37° C. for 24 h. The lowest concentration showing no growth was taken as the minimum inhibitory concentration (MIC).

[3] = DPPH microplate radical scavenging antioxidant assay; format: biochemical; settings: DPPH, 30 min, mean ± SD (n = 3)
Outline: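 Compounds, starting at 200 μg/mL in a dilution series, incubated with 0.2 mM methanolic DPPH for 30 min in the dark at 25° C. Absorbance at 515 nm converted to percent antioxidant activity; IC50 from concentration series, triplicate, mean±SD (n=3).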

[4] = test system: Pseudomonas aeruginosa ATCC 27953; test: MIC by two fold serial dilution technique; format: cell-based; settings: ATCC27953, P. aeruginosa, read-out: Minimal Inhibitory Concentration (MIC) PA
Text: as §2, §3

[5] = test system: Staphylococcus aureus ATCC 29213; test: MIC by two fold serial dilution technique; format: cell-based; settings: ATCC29213, S. aureus, read-out: Minimal Inhibitory Concentration (MIC) SA
Text: as §2, §3

[6] = test system: Bacillus subtilis ATCC 6633; test: MIC by two fold serial dilution technique; format: cell-based; settings: ATCC6633, B. subtilis, read-out: Minimal Inhibitory Concentration (MIC) BS
Text: as §2, §3

[7] = test system: Bacillus megaterium ATCC 9885; test: MIC by two fold serial dilution technique; format: cell-based; settings: Priestia megaterium, ATCC9885; B. megaterium; read-out: Minimal Inhibitory Concentration (MIC) BM
Text: as §2, §3

[8] = test system: Candida albicans NRRL Y-477; test: MIC by two fold serial dilution technique; format: cell-based; settings: NRRLY477, C. albicans, read-out: Minimal Inhibitory Concentration (MIC) CA
Text: as §2, §3

[9] = test system: Escherichia coli ATCC 2592; test: MIC by two fold serial dilution technique; format: cell-based; settings: ATCC2592, E. coli, read-out: Minimal Inhibitory Concentration (MIC) EC
Text: as §2, §3

[10] = test system: Saccharomyces cerevisiae (local isolate); test: MIC by two fold serial dilution technique; format: cell-based; settings: read-out: Minimal Inhibitory Concentration (MIC) SC
Text: as §2, §3

[11] = test system: Pseudomonas aeruginosa ATCC 27953; test: Agar well diffusion, primary antimicrobial screening; format: cell-based; settings: Pseudomonas aeruginosa, ATCC27953; P. aeruginosa ATCC 27953; 100 μL of 10 mg/ml in DMSO, 24 h; read-out: Inhibition Diameter Zone PA
Outline: as §1

[12] = test system: Bacillus subtilis ATCC 6633; test: as above; format: cell-based; settings: Bacillus subtilis, ATCC6633; B. subtilis ATCC 6633; 100 μL of 10 mg/ml in DMSO, 24 h; read-out: Inhibition Diameter Zone BS
Outline: as §1

[13] = test system: formaldehyde-induced paw oedema; test: Formaldehyde-induced rat paw oedema; format: in vivo; settings: 2.5 mg/kg orally
Protocol: Testing was performed to determine formaldehyde-induced rat paw oedema (edema). For the formaldehyde-induced rat paw oedema (edema) test, female Wister albino rats (150-175 g) were used for determination of the anti-inflammatory activities. The rats were obtained from the animal house colony of the National Organization for Drug Control and Research (NODCAR), Egypt. The animals were kept in standard plastic cages in an air conditioned room at 22±3° C., 55±5% humidity and supplied with standard laboratory diet and water ad libitum. All animal experimental procedures were carried out according to the Ethics Committee of the National Research Centre, Cairo, Egypt and followed the guidelines of the National Institutes of Health, Guide for Care and Use of Laboratory Animals (1985).
The percentage protection against inflammation was calculated by using following formula:
[formula] where Vc is the mean percentage increase in paw volume in the control and Vd is the mean percentage increase in paw volume after injection of the test compound. Values were expressed as mean±standard error (S.E.). Comparisons between mean values were carried out using two-way analysis of variance (ANOVA), followed by Tukey Kramer multiple comparisons test for all acute toxicity study tests. […] was considered significant. Graph pad prism software (version 6) was used to carry out all statistical tests.

SMILES | melting point [°C] | zone of inhibition at 10000 µg/mL [1] [mm] | zone of inhibition at 10000 µg/mL [2] [mm] | % Inhibition of proteinase activity (trypsin) [%] | MIC (tested microorganisms; against gram-positive bacteria) [µg/mL] | IC50 [3] | MIC [4] [µg/mL] | MIC [5] [µg/mL] | MIC [6] [µg/mL] | MIC [7] [µg/mL] | MIC [8] [µg/mL] | MIC [9] [µg/mL] | MIC [10] [µg/mL] | in vitro anti-proteinase activity compared with aspirin (trypsin) | MIC (tested microorganisms; against most of the tested microorganisms) [µg/mL] | zone of inhibition at 10000 µg/mL [11] [mm] | zone of inhibition at 10000 µg/mL [12] [mm] | in vivo anti-inflammatory activity [13]
Cc1ccc2oc(=O)c3c(c2c1)OC(N=Cc1ccc(Cl)cc1Cl)=C(C#N)C3c1ccco1 (racemic) [Compound 8f, (±)-2-((2,4-dichlorobenzylidene)amino)-4-(furan-2-yl)-9-methyl-5-oxo-4H,5H-pyrano[3,2-c]chromene-3-carbonitrile] | > 300 | 20 | 20 | 26.83 ± 5.33 | 500 to 1000 (≈ 1050 to 2100 µM) | — ((—): inactive (IC50 > 200 μg/mL)) | 1000 (≈ 2100 µM) | 500 (≈ 1050 µM) | 500 (≈ 1050 µM) | 1000 (≈ 2100 µM) | 500 (≈ 1050 µM) | 1000 (≈ 2100 µM) | 500 (≈ 1050 µM) |  |  |  |  | 
COc1cc(C=NC2=C(C#N)C(c3ccc([N+](=O)[O-])cc3)c3c(c4cc(C)ccc4oc3=O)O2)cc(OC)c1OC (racemic) [Compound 8c, (±)-9-methyl-4-(4-nitrophenyl)-5-oxo-2-((3,4,5-trimethoxybenzylidene)amino)-4H,5H-pyrano[3,2-c]chromene-3-carbonitrile] | 221 to 223 |  |  | 68.5±6.23 |  | — ((—): inactive (IC50 > 200 μg/mL)) | 500 (≈ 903 µM) | 500 (≈ 903 µM) | 500 (≈ 903 µM) | 500 (≈ 903 µM) | 500 (≈ 903 µM) | 500 (≈ 903 µM) | 500 (≈ 903 µM) | more potent |  |  |  | 
Cc1ccc2oc(=O)c3c(c2c1)OC(N=Cc1ccccc1)=C(C#N)C3c1ccc([N+](=O)[O-])cc1 (racemic) [Compound 8a, (±)-2-(benzylideneamino)-9-methyl-4-(4-nitrophenyl)-5-oxo-4H,5H-pyrano[3,2-c]chromene-3-carbonitrile] | 208 to 209 |  |  |  |  | — ((—): inactive (IC50 > 200 μg/mL)) | 500 (≈ 1080 µM) |  |  | 500 (≈ 1080 µM) | 500 (≈ 1080 µM) |  | 500 (≈ 1080 µM) |  | 250 to 500 (≈ 539 to 1080 µM) |  |  | 
COc1cc(C=NC2=C(C#N)C(c3ccco3)c3c(c4cc(C)ccc4oc3=O)O2)cc(OC)c1OC (racemic) [Compound 8d, (±)-4-(furan-2-yl)-9-methyl-5-oxo-2-((3,4,5-trimethoxybenzylidene)amino)-4H,5H-pyrano[3,2-c]chromene-3-carbonitrile] | 248 to 250 | < 15 | < 15 | 43.4 ± 1.52 |  | 82.92 ± 3.30 µg/mL (≈ 166 µM) |  | 1000 (≈ 2010 µM) |  |  | 1000 (≈ 2010 µM) |  | 1000 (≈ 2010 µM) | as potent |  | < 15 | < 15 | 
Cc1ccc2oc(=O)c3c(c2c1)OC(N)=C(C#N)C3c1ccco1 (racemic) [Compound 5b, (±)-2-amino-4-(furan-2-yl)-9-methyl-5-oxo-4H,5H-pyrano[3,2-c]chromene-3-carbonitrile] | 251 to 253 |  |  | 74.68±3.01 | 500 to 1000 (≈ 1560 to 3120 µM) | — ((—): inactive (IC50 > 200 μg/mL)) |  |  |  |  |  |  |  | more potent |  |  |  | significant protection against inflammation
